Legend:
[1] = examination of internal organs of bromelain-treated rabbits; design: species or system white rabbits; details: rabbit, in vivo
Protocol: One half of each organ was frozen and the other half was fixed with 10% neutral buffered formalin for 24 hours. Then the fixed organs were washed […] stepwise dehydrated with 70%, 80%, 90%, 100% ethanol and then embedded in paraffin by using Shandon-Histocentre-2. The embedded organ blocks were sectioned in 4 µm thickness with a microtome (McBain, M 820, American Optical Co. USA) and stained with hematoxylin and eosin stain (H.E. stain). The stained specimens were made transparent with xylene, and mounted with permount on microslides.

[2] = rabbit, in vivo
Protocol: After 8 weeks of treatment, the rabbits were anesthetized with injections of ketamine 75 mg/kg in the femoral muscle and sacrificed. Blood samples were collected from the heart of each rabbit to determine the blood analysis consisting of: complete blood count (CBC), Chemistry-7 and 24, (including Liver and renal function tests), lipid profiles (including Total cholesterol, HDL, LDL, VLDL, and triglycerides), coagulation factors consisting of; prothrombin time (PT), partial thromboplastin time (PPT), and immune-globulin-E.
All laboratory blood analysis were performed on rabbits of all 7 groups, The results were tested using student t-test and Microsoft Excel-7 programs.

tumor cell [3] = details: in vitro; cited from earlier work
tumor cell [4] = details: in vitro; cited from earlier work; remark: listed apart in the source
CD44 = details: in vitro; cited from earlier work
tumor cells = details: in vitro; cited from earlier work
TNFα, II-2 = details: in vitro; cited from earlier work

Substance | internal organs, microscopic examination (H.E. stain) [1] | GGTP [2] | HDL [2] | Hb [2] | SGOT [2] | SGPT [2] | TC (total cholesterol) [2] | TRG (triglycerides) [2] | WBC [2] | laboratory blood tests, differences between groups [2] | tumor cell proliferation, effect (tumor cell [3]) | tumor cell invasion through extracellular matrix, effect (tumor cell [4]) | CD44 expression on metastatic cells, effect (CD44) | immunocytotoxicity of lymphocytes against tumor cells, effect (tumor cells) | secretion of TNFα, II-2, effect (TNFα, II-2)
Bromelain | no pathological abnormalities or lesions | 7+—1 | 43.6+—16.5 mg/ | 11.9+—1.9 gm/dl | 110.8+—30.7 u/l | 71.2+—3.8 u/l | 175.6+—36.8 mg/dl | 92.6+—38.8 mg/dl | 7.3+—2.2 k/ul | no differences among or within each groups |  |  |  |  | 
Ananain [Bromelain F9] |  |  |  |  |  |  |  |  |  |  | ↓ | = | ↓ | ↑ | ↑
Stem bromelain [Bromelain F4] |  |  |  |  |  |  |  |  |  |  |  | = |  |  | 

Source: patent US20130236445A1, “Bromelain proteinases (Bromelainases) as chemotherapeutic agents in treating and/or preventing various types of cancer in a mammal” (Garfield Medical Group, priority 2011, published 2013)
